Laboratory results as given in US11779597B2, “Method of treating Parkinson's and other neurodegenerative diseases” (Vector Vitale IP LLC, priority 2019, dated 2023).
Marks after values point to notes of the source that are not given here.

Columns and labels:
Assay type in all cases: in vivo
[1] = Body weight in LPS rat models of parkinsonism; settings: for body weight: in g (unit assumed)
Experimental: On the 1st day of the experiment, rats were either operated to model hemi-parkinsonism or sham operated. From the 9th to the 18th day of the experiment, the animals were injected either deuterium-depleted water or the test substance, according to their allocation into groups, for 10 days. On the 8th day of the experiment (before initiation of treatment—apomorphine test I) and on the 21st day of the experiment (after the end of administering the test substance —apomorphine test II) the animals underwent an apomorphine test to analyze the development of hemi-parkinsonism which correlates with the number of destroyed dopaminergic neurons. In addition, a follow-up analysis of fecal water content was carried out, i.e., before the start of treatment on the 8th day after the operation, as well as on the 21st (after the end of treatment) and the 28th day (before autopsy). On the 24th day of the experiment, behavioral tests were carried out in all groups. All animals were weighed before autopsy. During autopsy, ⅔ of animals from each group were sacrificed by cervical dislocation and brain and blood samples were collected for further biochemical and immunological tests. ⅓ of the animals were used for further immunohistochemical studies of the brain; for this purpose, under anesthesia, a procedure of fast, controlled and uniform fixation of the whole body of the animal was performed using 4% paraformaldehyde perfused through the heart of the rat to obtain the best preservation of the brain architecture for immunohistochemistry. Gage G J, et al., J Vis Exp. 2012 Jul. 30; (65).

Water content of feces = settings: LPS rat models; administration during 10 days
Experimental: Feces were collected on the 8th, 21st and 28th days of the experiment. They were weighed (wet weight mww) and dried in a thermostat at t=60° C. for 24 hours and then weighed again (dry weight mdw). The water content of feces (M) was calculated as the percentage difference between wet and dry weight of feces according to the following formula: M=100−(mdw×100%/mww).
On the 1st day of the experiment, rats were either operated to model hemi-parkinsonism or sham operated. From the 9th to the 18th day of the experiment, the animals were injected either deuterium-depleted water or the test substance, according to their allocation into groups, for 10 days. On the 8th day of the experiment (before initiation of treatment—apomorphine test I) and on the 21st day of the experiment (after the end of administering the test substance —apomorphine test II) the animals underwent an apomorphine test to analyze the development of hemi-parkinsonism which correlates with the number of destroyed dopaminergic neurons. In addition, a follow-up analysis of fecal water content was carried out, i.e., before the start of treatment on the 8th day after the operation, as well as on the 21st (after the end of treatment) and the 28th day (before autopsy). On the 24th day of the experiment, behavioral tests were carried out in all groups. All animals were weighed before autopsy. […]

[2] = system: dopaminergic neurons in the black substance in rat models of Parkinson's disease (6-OHDA); assay: Apomorphine test / destruction of dopaminergic neurons after prophylactic administration; settings: 6-OHDA rat models
Experimental: Methods: Adult mature rodents were used in the study. […] Before prophylactic administration of the experimental drugs, the animals underwent an open field test to assay their general locomotor activity levels and anxiety. The prophylactic course consisted of 10 daily intraperitoneal injections of the drugs (in the case of combination drug, its components were administered at an interval of 2 hours). After the end of prophylactic course, Parkinson's disease was modelled in the animals. […] Ten days after the last (second) apomorphine test, the animals' behavioral responses were assessed in the open field test followed by euthanasia and analysis of functional (metabolic and phenotypic) profiles of phagocytes of different localization. Thus, the study of the functional profile of phagocytes in rat models of Parkinson's disease was performed on day 28 after the end of the course of prophylactic treatment with the experimental drugs. Resident peritoneal macrophages were isolated from sterile cell suspension of peritoneal exudate; enrichment of the suspension was carried out by 2-hour adhesion. Non-adherent and dead cells were separated by centrifugation. Functional characteristics of circulating phagocytes (monocytes and neutrophils) were evaluated in whole blood taken into a tube containing EDTA used as an anticoagulant. Mononuclear and polymorphonuclear phagocytes were analyzed on a flow cytofluorimeter using a gating method. Phagocytes of microglia were isolated using a Percoll density gradient. To assess the phenotypic profile of phagocytes, expression indices of the pan-phagocytic marker CD14 (co-receptor of the bacterial lipopolysaccharide) and the marker of alternative polarization of phagocytes CD206 (mannose receptor 1) were used. […] The hemogram parameters were analyzed on the hematological analyzer Particle counter model PCE 210 (ERMA, Japan) adapted for the study of blood cells of rats and mice.

peritoneal macrophages = assay: Functional profile of peritoneal macrophages in 6-OHDA rat models after prophylactic administration; settings: prophylactic i.p.
Experimental: Methods: Adult mature rodents were used in the study. […] Before prophylactic administration of the experimental drugs, the animals underwent an open field test to assay their general locomotor activity levels and anxiety. The prophylactic course consisted of 10 daily intraperitoneal injections of the drugs (in the case of combination drug, its components were administered at an interval of 2 hours). After the end of prophylactic course, Parkinson's disease was modelled in the animals. […] Ten days after the last (second) apomorphine test, the animals' behavioral responses were assessed in the open field test followed by euthanasia and analysis of functional (metabolic and phenotypic) profiles of phagocytes of different localization. Thus, the study of the functional profile of phagocytes in rat models of Parkinson's disease was performed on day 28 after the end of the course of prophylactic treatment with the experimental drugs. Resident peritoneal macrophages were isolated from sterile cell suspension of peritoneal exudate; enrichment of the suspension was carried out by 2-hour adhesion. Non-adherent and dead cells were separated by centrifugation. Functional characteristics of circulating phagocytes (monocytes and neutrophils) were evaluated in whole blood taken into a tube containing EDTA used as an anticoagulant. Mononuclear and polymorphonuclear phagocytes were analyzed on a flow cytofluorimeter using a gating method. Phagocytes of microglia were isolated using a Percoll density gradient. To assess the phenotypic profile of phagocytes, expression indices of the pan-phagocytic marker CD14 (co-receptor of the bacterial lipopolysaccharide) and the marker of alternative polarization of phagocytes CD206 (mannose receptor 1) were used. To characterize the metabolic profile, oxidative metabolism and phagocytic activity of microglia as well as the pathway of arginine metabolism were studied using flow cytometry and spectrometric methods respectively. FITC-labeled Staphylococcus aureus Wood 46 was used as the object of phagocytosis. The hemogram parameters were analyzed on the hematological analyzer Particle counter model PCE 210 (ERMA, Japan) adapted for the study of blood cells of rats and mice.

Substance: ^64Zn-enriched zinc aspartate [^64Zne-asp]
- body weight ([1]; 1st day): 193.78 ± 22.21
- body weight ([1]; 28th day): 219.8 ± 18.31
- body weight changes, % ([1]; between 1st and 28th day): 13* %
- body weight of LPS rat models (in words) ([1]; day 28 versus day 1 and versus LPS + deuterium-depleted water, listed as 64Zn-asp): statistically significant increase
- water content of feces (Water content of feces): did not cause any significant changes
- Number of animals with 100% destruction of neurons (%) ([2]; prophylactic 10 daily i.p. injections, at completion of the experiment): 35%
- Rate of rotational movements in animals with 100% destruction of neurons (r/30 min) ([2]; prophylactic i.p., apomorphine test): 224.3 ± 35.9 r/30 min
- animals with complete loss of neurons, less than in the control ([2]; prophylactic i.p., versus control 75%): over 50%
- CD206 expression level in CD14+ peritoneal phagocytes (peritoneal macrophages): further decrease
- NO synthesis by peritoneal macrophages (peritoneal macrophages): prevented an increase
- arginase activity of peritoneal macrophages (peritoneal macrophages): absence of any changes
- phagocytosis by peritoneal macrophages (peritoneal macrophages): prevented an increase
- NO synthesis by peritoneal macrophages (peritoneal macrophages; listed as zinc-based drug): decrease
